Like-named read-outs stand apart in the source and are kept apart here.
Experiments:
OCT1 = molecular target: T1, OCT1 (Homo sapiens, UniProt O15245); experiment: [3H]-MPP+ uptake inhibition assay in HEK-293 cells; type: cell-based; conditions: 10 min uptake; for IC50: HEK cells stably expressing human OCT1
T1 construct: expressed in transfected cells
T1 sequence (O15245 1-554): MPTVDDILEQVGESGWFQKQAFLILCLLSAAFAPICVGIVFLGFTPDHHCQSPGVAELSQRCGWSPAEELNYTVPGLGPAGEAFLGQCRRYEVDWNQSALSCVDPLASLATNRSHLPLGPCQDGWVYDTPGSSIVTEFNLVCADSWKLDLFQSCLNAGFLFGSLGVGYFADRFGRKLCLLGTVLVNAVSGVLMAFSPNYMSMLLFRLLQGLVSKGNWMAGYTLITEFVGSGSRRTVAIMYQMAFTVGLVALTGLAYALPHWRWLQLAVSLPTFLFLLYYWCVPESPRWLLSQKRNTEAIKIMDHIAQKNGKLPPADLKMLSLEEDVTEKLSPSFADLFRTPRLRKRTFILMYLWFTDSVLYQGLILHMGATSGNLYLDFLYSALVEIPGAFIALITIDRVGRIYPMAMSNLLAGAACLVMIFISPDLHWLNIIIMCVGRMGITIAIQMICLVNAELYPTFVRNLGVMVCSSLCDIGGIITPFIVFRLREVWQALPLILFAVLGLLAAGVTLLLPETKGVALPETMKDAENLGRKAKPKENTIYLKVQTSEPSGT
Method: HEK–293 cells (LGC Standards GmbH, Germany) stably expressing human isoforms of wild type organic cation transporters 1–3 (OCT1–3) were cultured in Dulbecco’s modified Eagle’s medium (DMEM; Sigma-Aldrich) with high glucose (4.5 g/L) and L-glutamine (584 mg/L) supplemented with 10% foetal calf serum (FCS; Biowest) and penicillin/streptomycin mixture (50 mg/L; Sigma/Aldrich) at 37 °C in a humidified atmosphere (5% CO2). The selection reagent was Geneticin (150 U/mL; Merck, Germany) for all three cell lines. Cells were seeded onto poly-D-lysine (0.05 mg/mL; Sigma-Aldrich) precoated clear bottom Corning 96 well white assay plate (Sigma-Aldrich) at the density of 4 × 10^4 cells per well 24 h prior to the experiment.
The assay was performed as previously described with slight modification. Briefly, on the day of the experiment, cells were washed once with 100 µL Krebs-HEPES buffer (KHB; 10 mM HEPES, 120 mM NaCl, 3 mM KCl, 2 mM CaCl2·2H2O, 2 mM MgCl2·6H2O, 5 mM D-(+)- glucose, pH 7.3) at room temperature. Cells were preincubated for 10 min in 50 µL of RT KHB containing increasing concentrations of tested compounds previously dissolved in dimethyl sulfoxide (DMSO; final concentration in working solution was 1%). After that, the preincubation solution was quickly removed and replaced with 50 µL of uptake solution containing the aforementioned components with the addition of 50 nM [^3H]-1-methyl-4-phenylpyridinium ([^3H]-MPP^+; 60 Ci/mmol; American Radiolabeled Chemicals, Saint Louis, MO, USA). After the 10 min uptake at RT, the transport was stopped by washing cells with 100 µL of ice-cold KHB and adding 200 µL of Ultima GoldTM XR scintillation cocktail (PerkinElmer, MA, USA). The plates were shaken, placed into Wallac 1450 MicroBeta TriLux Liquid Scintillation Counter and Lumi (GMI, Ramsey, MN, USA) and the released radioactivity was measured for 3 min. Nonspecific [^3H]-MPP^+ uptake was measured in the presence of 100 µM decynium-22 and the data were plotted as a percentage of uptake in the presence of 1% DMSO from which the value of the nonspecific uptake was subtracted. Nonlinear regression analysis (GraphPad Prism version 5.0, GraphPad Software, San Diego, CA, USA) was used for calculation of IC50 values.

[1] = Distribution coefficient (D7.4), shake-flask method, n-octanol/buffered aqueous solution pH 7.40; type: physicochemical; conditions: n-octanol/PBS pH 7.4, 25 °C, read-out: logD7.4 (proligand)
Method: Distribution coefficients (D7.4) values were determined by the traditional shake-flask method in n-octanol/buffered aqueous solution at pH 7.40 (20 mM phosphate buffer saline (PBS)) at 25.0 ± 0.2 °C as described previously.

[2] = EPR spin trapping (DMPO/H2O2), ROS generation in cell-free media; conditions: DMPO/H2O2 aqueous system
Method: (§1) The generation of paramagnetic intermediates was monitored by cw-EPR spectroscopy using the EMXplus spectrometer and spin trapping technique. Deionised water was used for preparation of aqueous solutions. The spin trapping agent 5,5-dimethyl-1-pyrroline N-oxide (DMPO; Sigma-Aldrich) was distilled prior to the application. The EPR spectra were measured with following experimental parameters: X-band, room temperature, microwave frequency, 9.448 GHz; 100 kHz field modulation amplitude, 2 G; time constant, 10 ms; scan time, 21 s (three scans). Glutathione from Sigma-Aldrich; 6-hydroxy-2,5,7,8-tetramethylchroman-2-carboxylic acid (Trolox, 97%, Sigma-Aldrich); K2S2O8 (p.a. purity, Merck); 2,2′-azinobis [3-ethylbenzothiazoline-6-sulfonic acid] (ABTS; purum, >99%; Fluka) were used as received. Deionised high-purity grade H2O, with conductivity of […], was produced by using the TKA H2O purification system (Water Purification Systems GmbH, D-Niederelbert). For the ABTS decolourisation assay, the radical cations were pre-formed by the reaction of an aqueous solution of K2S2O8 (3.30 mg) in H2O (5 mL) with ABTS (17.2 mg). The resulting bluish-green radical cation (ABTS^•+) solution was stored overnight in the dark. […] The optical spectra were recorded from 1 to 40 min in 1 cm quartz UV cuvette after mixing the sample water/DMSO solution with ABTS^•+ in mixed solvent water/DMSO (20% (v/v)).

[3] = 1H NMR titration, pKa of E/Z isomers; type: physicochemical; conditions: 10% D2O/H2O, cL = 200 μM, I = 0.1 M (KCl), 25 °C
Method: ^1H NMR spectroscopic studies were carried out on a Bruker Avance III HD instrument (Bruker BioSpin GmbH, Rheinstetten, Germany). All spectra were recorded with the WATERGATE water suppression pulse scheme using DSS internal standard.

[4] = ABTS decolourisation assay, Trolox equivalent antioxidant capacity; conditions: water/DMSO (20% v/v), absorbance at 735 nm
Method: as §1

IC50 (OCT1) [µM]	logD [1]	Compound	radical formation [2]	IC50 at 10 min (OCT1; HEK-293 cells stably expressing human OCT1, pH 7.3, probe [3H]-MPP+ (50 nM)) [µM]	pKa ([3]; read-out: pKa of major E isomer)	pKa ([3]; read-out: pKa of minor Z isomer)	Trolox equivalent antioxidant capacity (TEAC) [4]
391 ± 40	-0.39 ± 0.01	CNC(=S)N/N=C/c1cc(C[N+](C)(C)C)ccc1O [[H2L^Me]Cl]					
119 ± 50	0.68 ± 0.04	C[N+](C)(C)Cc1ccc(O)c(/C=N/NC(=S)Nc2ccccc2)c1 [[H2L^Ph]Cl]					
169 ± 26.2	0.06 ± 0.04	CCNC(=S)N/N=C/c1cc(C[N+](C)(C)C)ccc1O [[H2L^Et]Cl]					

Compound	IC50 (OCT1) [µM]	logD [1]	radical formation [2]	IC50 at 10 min (OCT1; HEK-293 cells stably expressing human OCT1, pH 7.3, probe [3H]-MPP+ (50 nM)) [µM]	pKa ([3]; read-out: pKa of major E isomer)	pKa ([3]; read-out: pKa of minor Z isomer)	Trolox equivalent antioxidant capacity (TEAC) [4]
C[N+](C)(C)Cc1ccc(O)c(/C=N/NC(N)=S)c1 [[H2L^H]Cl]	740 ± 195	-0.84 ± 0.03	no radical formation	740	7.51	6.95	0.74
